Assay results reported in PubChem BioAssay AID588327 (The Scripps Research Institute Molecular Screening Center, 2011).
The source made the active and inactive calls. The rule behind the calls is not given here.

Target: Sphingosine 1-phosphate receptor 3 (Homo sapiens) (UniProt Q99500)
Test: binders competing with S1P at S1P3 – cell-based, [33P]S1P, radiometric, dose response, mechanism study for S1P3 agonist project, late-stage follow-up (AID 588327)
Conditions: S1P3 membranes, [33P]S1P competition binding, CPM

Sequence of Sphingosine 1-phosphate receptor 3 (Homo sapiens) (Q99500 whole entry, looked up): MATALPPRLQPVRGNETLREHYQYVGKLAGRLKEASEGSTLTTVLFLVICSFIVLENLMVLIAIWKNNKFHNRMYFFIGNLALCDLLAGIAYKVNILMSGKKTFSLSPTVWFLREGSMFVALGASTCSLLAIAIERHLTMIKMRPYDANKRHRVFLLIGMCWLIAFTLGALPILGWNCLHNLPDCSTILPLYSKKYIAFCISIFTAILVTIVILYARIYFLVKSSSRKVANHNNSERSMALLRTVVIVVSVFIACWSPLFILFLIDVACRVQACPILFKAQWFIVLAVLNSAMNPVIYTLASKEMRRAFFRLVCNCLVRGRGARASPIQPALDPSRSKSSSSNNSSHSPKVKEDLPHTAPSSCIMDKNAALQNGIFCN

O=C(c1cc(C2CC2)on1)N(C1CCCCC1)C1CCCCC1
IC50: > 10 µM (inactive)
